The target of experiment [1] is SMARCA2 (Homo sapiens, UniProt P51531). As to the kind of experiment: HiBit assay in engineered HT1080 CRISPR knock-in cell, 6 hrs (B series), SMARCA2. The class given is cell-based. The following applies: 6 hrs incubation; for DC50: HT1080 CRISPR knock-in cells, read-out: SMARC A2 HT1080 HiBit DC50; for Dmax: HT-1080, HT1080 CRISPR knock-in cells, read-out: SMARC A2 HT1080 HiBit Dmax (%). A digest of the protocol:
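Using a 6 hr treatment window at 37° C and 5% CO2, tagged HT1080 knock-in cells were exposed to test compounds with DMSO vehicle held at 0.1%. Signal came from lytic LgBiT/substrate reagent added after incubation, with control wells lacking LgBiT, and was read as luminescence.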
On the technique in general: With HiBiT, luminescence reflects the tagged protein that the partner subunit can reach.

Experiment [2] addresses SMARCA4 (Homo sapiens, UniProt P51532). As to the kind of experiment: HiBit assay in engineered HT1080 CRISPR knock-in cell, 6 hrs (B series), SMARCA4. The class given is cell-based. The following applies: 6 hrs incubation; for DC50: HT1080 CRISPR knock-in cells, read-out: SMARC A4 HT1080 HiBit DC50; for Dmax: HT-1080, HT1080 CRISPR knock-in cells, read-out: SMARC A4 HT1080 HiBit Dmax(%). A digest of the protocol: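 Compounds were dispensed first, then HT1080 knock-in cells added and incubated for 6 hrs at 37° C. Next, detection reagent containing LgBiT and lytic substrate was added. Plates were shaken 10 min and centrifuged, and luminescence was measured.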

SMILES strings stand for the structures.

SMARCA2, sequence (P51531 whole entry): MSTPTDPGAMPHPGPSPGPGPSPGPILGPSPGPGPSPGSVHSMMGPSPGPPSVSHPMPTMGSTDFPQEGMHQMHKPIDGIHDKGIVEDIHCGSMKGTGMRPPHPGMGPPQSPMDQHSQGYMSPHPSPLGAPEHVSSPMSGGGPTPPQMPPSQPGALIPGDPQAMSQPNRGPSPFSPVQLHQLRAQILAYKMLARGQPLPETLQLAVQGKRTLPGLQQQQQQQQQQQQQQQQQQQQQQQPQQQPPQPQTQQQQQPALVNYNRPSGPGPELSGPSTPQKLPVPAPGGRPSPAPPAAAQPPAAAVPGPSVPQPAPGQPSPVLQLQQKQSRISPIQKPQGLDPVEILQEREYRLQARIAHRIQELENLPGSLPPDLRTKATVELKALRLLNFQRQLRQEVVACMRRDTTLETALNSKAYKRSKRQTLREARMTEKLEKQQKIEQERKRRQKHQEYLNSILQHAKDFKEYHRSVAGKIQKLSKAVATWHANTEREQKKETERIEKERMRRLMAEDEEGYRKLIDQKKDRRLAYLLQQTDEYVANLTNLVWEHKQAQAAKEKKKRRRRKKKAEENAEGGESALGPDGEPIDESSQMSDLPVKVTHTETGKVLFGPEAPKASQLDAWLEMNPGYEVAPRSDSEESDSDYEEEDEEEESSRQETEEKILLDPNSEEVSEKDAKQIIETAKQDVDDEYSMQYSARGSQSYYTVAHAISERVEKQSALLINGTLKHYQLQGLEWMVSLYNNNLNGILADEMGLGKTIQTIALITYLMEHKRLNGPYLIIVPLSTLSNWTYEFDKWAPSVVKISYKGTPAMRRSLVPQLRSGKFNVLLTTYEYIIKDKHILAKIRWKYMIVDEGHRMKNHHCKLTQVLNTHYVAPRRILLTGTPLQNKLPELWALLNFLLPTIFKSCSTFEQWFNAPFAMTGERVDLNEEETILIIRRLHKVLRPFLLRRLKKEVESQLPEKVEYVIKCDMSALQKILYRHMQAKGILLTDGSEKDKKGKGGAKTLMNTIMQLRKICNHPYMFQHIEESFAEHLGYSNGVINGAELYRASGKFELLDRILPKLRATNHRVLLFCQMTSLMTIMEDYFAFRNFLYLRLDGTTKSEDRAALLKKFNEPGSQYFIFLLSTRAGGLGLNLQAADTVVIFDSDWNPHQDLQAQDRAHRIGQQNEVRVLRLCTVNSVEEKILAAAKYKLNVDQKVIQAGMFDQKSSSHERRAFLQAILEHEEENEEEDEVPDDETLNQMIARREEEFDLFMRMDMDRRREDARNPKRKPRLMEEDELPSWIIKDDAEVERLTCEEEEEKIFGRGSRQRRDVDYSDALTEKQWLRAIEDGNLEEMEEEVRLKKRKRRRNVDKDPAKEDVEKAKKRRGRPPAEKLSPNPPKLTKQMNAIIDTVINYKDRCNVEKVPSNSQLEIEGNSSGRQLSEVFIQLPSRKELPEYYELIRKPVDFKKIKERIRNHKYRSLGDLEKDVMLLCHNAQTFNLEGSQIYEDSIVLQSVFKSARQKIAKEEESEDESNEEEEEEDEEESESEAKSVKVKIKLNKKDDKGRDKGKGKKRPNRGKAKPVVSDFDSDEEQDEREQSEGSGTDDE
SMARCA4, sequence (P51532 whole entry): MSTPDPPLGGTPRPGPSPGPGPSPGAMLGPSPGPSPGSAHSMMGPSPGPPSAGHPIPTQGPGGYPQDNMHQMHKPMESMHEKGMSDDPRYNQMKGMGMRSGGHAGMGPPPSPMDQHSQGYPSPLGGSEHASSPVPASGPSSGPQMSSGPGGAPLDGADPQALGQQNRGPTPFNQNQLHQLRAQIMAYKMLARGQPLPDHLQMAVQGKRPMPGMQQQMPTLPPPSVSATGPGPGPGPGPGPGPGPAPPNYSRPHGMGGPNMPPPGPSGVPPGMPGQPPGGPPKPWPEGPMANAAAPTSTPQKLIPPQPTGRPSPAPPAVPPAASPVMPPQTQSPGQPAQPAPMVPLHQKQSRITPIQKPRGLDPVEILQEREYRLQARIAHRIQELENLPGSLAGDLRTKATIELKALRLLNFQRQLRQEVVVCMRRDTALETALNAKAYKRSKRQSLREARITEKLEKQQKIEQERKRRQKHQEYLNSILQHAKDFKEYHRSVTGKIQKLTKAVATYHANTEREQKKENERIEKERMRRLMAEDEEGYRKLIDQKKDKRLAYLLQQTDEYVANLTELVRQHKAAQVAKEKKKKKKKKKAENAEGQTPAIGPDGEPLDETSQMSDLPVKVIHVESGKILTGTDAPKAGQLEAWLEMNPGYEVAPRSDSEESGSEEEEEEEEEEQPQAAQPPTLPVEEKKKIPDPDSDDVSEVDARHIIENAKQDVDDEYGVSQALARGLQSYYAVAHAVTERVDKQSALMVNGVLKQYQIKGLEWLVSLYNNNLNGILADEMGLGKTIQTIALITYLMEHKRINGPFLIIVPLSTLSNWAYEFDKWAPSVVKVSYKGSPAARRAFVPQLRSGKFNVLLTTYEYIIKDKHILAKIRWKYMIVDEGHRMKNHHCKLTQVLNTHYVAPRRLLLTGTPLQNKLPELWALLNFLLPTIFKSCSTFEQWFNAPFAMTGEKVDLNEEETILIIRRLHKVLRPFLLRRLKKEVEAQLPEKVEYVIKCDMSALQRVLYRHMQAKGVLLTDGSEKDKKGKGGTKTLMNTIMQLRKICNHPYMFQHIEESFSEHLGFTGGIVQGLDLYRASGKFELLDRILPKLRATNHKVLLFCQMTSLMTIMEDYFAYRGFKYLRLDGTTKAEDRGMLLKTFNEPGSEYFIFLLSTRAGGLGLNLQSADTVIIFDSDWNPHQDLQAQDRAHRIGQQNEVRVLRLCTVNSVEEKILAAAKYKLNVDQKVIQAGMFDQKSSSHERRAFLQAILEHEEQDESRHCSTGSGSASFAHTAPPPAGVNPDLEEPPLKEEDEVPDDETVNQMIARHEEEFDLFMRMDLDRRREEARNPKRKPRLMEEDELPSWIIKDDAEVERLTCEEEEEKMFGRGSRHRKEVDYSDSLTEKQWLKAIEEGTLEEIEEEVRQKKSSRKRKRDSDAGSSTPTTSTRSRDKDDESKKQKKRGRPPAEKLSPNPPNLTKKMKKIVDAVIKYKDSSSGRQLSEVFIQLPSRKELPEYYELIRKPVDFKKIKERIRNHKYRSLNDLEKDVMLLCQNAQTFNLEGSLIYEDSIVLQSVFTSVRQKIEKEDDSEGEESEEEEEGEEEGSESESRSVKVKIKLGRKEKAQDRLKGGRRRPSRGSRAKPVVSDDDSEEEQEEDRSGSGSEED

In the case of `Cc1ncsc1-c1ccc([C@H](C)NC(=O)[C@@H]2C[C@@H](O)CN2C(=O)[C@@H](c2cc(OCCN3CCC(c4ccc5c(c4)C(C)(C)c4nc(=O)c6c(Cl)cccc6n4-5)CC3)no2)C(C)C)cc1` [Compound B4, (2S,4R)-1-((R)-2-(3-(2-(4-(4-chloro-7,7-dimethyl-5-oxo-5,7-dihydroindolo[1,2-a]quinazolin-9-yl)piperidin-1-yl)ethoxy)isoxazol-5-yl)-3-methylbutanoyl)-4-hydroxy-N—((S)-1-(4-(4-methylthiazol-5-yl)phenyl)ethyl)pyrrolidine-2-carboxamide], in experiment [1], the DC50 is under 100 nM and the Dmax was over 90%. In experiment [2], the DC50 is under 100 nM and the Dmax was 70 to 90%.
In the case of `Cc1nc(C)c(-c2ccc([C@H](C)NC(=O)[C@@H]3C[C@@H](O)CN3C(=O)[C@@H](n3cc([C@H]4CC[C@H](CN5CCN(c6ccc7c(c6)-n6c(nc(=O)c8c(Cl)cccc86)C76CCCCC6)CC5)CC4)nn3)C(C)(C)C)cc2)s1` [Compound B168, (2S,4R)-1-((S)-2-(4-((1,4S)-4-((4-(4′-chloro-5′-oxo-5′H-spiro[cyclohexane-1,7′-indolo[1,2-a]quinazolin]-10′-yl)piperazin-1-yl)methyl)cyclohexyl)-1H-1,2,3-triazol-1-yl)-3,3-dimethylbutanoyl)-N-((S)-1-(4-(2,4-dimethylthiazol-5-yl)phenyl)ethyl)-4-hydroxypyrrolidine-2-carboxamide], in experiment [1], the DC50 was under 100 nM and the Dmax was over 90%. In experiment [2], the DC50 lay within 100 to 500 nM and the Dmax lay within 70 to 90%.
In the same order, the values of `C[C@H](NC(=O)[C@@H]1C[C@@H](O)CN1C(=O)[C@@H](n1cc([C@H]2CC[C@H](CN3CCN(c4ccc5c(c4)-n4c(nc(=O)c6c(Cl)cccc64)C5(C)C)CC3)CC2)nn1)C(C)(C)C)c1ccc(-c2scnc2C#CCN2CCOCC2)cc1` [Compound B135, (2S,4R)-1-((S)-2-(4-((1r,4S)-4-((4-(4-chloro-7,7-dimethyl-5-oxo-5,7-dihydroindolo[1,2-a]quinazolin-10-yl)piperazin-1-yl)methyl)cyclohexyl)-1H-1,2,3-triazol-1-yl)-3,3-dimethylbutanoyl)-4-hydroxy-N-((S)-1-(4-(4-(3-morpholinoprop-1-yn-1-yl)thiazol-5-yl)phenyl)ethyl)pyrrolidine-2-carboxamide] are under 100 nM, over 90%, under 100 nM and 70 to 90%.
In the same order, the values of `Cc1ncsc1-c1ccc([C@H](CCCCCN2CCC(c3ccc4c(c3)C(C)(C)c3nc(=O)c5c(Cl)cccc5n3-4)CC2)NC(=O)[C@@H]2C[C@@H](O)CN2C(=O)[C@@H](NC(=O)C2(F)CC2)C(C)(C)C)cc1` [Compound B7, (2S,4R)—N—((S)-6-(4-(4-chloro-7,7-dimethyl-5-oxo-5,7-dihydroindolo[1,2-a]quinazolin-9-yl)piperidin-1-yl)-1-(4-(4-methylthiazol-5-yl)phenyl)hexyl)-1-((S)-2-(1-fluorocyclopropane-1-carboxamido)-3,3-dimethylbutanoyl)-4-hydroxypyrrolidine-2-carboxamide] are under 100 nM, over 90%, under 100 nM and over 90%.
Taken in the same sequence, the figures for `Cc1cc(-c2scnc2C)ccc1[C@H](C)NC(=O)[C@@H]1C[C@@H](O)CN1C(=O)[C@@H](n1cc([C@H]2CC[C@H](CN3CCC(c4ccc5c(c4)-n4c(nc(=O)c6c(Cl)cccc64)C5(C)C)CC3)CC2)nn1)C(C)(C)C` [Compound B149, (2S,4R)-1-((S)-2-(4-((1r,4S)-4-((4-(4-chloro-7,7-dimethyl-5-oxo-5,7-dihydroindolo[1,2-a]quinazolin-10-yl)piperidin-1-yl)methyl)cyclohexyl)-1H-1,2,3-triazol-1-yl)-3,3-dimethylbutanoyl)-4-hydroxy-N-((S)-1-(2-methyl-4-(4-methylthiazol-5-yl)phenyl)ethyl)pyrrolidine-2-carboxamide] were under 100 nM, over 90%, under 100 nM and 70 to 90%.
In the case of `C#Cc1ccc([C@H](CN2CCOCC2)NC(=O)[C@@H]2C[C@@H](O)CN2C(=O)[C@@H](n2cc([C@H]3CC[C@H](CN4CCC(c5ccc6c(c5)-n5c(nc(=O)c7c(Cl)cccc75)C6(C)C)CC4)CC3)nn2)C(C)(C)C)cc1` [Compound B102, (2S,4R)-1-((S)-2-(4-((1r,4S)-4-((4-(4-chloro-7,7-dimethyl-5-oxo-5,7-dihydroindolo[1,2-a]quinazolin-10-yl)piperidin-1-yl)methyl)cyclohexyl)-1H-1,2,3-triazol-1-yl)-3,3-dimethylbutanoyl)-N—((R)-1-(4-ethynylphenyl)-2-morpholinoethyl)-4-hydroxypyrrolidine-2-carboxamide], in experiment [1], the DC50 is under 100 nM and the Dmax was over 90%. In experiment [2], the DC50 was under 100 nM and the Dmax is 70 to 90%.
Take `Cc1ncsc1-c1ccc([C@H](CC(=O)NC2CCC(N3CCC(c4ccc5c(c4)-n4c(nc(=O)c6c(Cl)cccc64)C5(C)C)CC3)CC2)NC(=O)[C@@H]2C[C@@H](O)CN2C(=O)[C@@H](NC(=O)C2(F)CC2)C(C)(C)C)cc1` (stereo partly drawn) [Compound B31, (2S,4R)—N—((S)-3-((4-(4-(4-chloro-7,7-dimethyl-5-oxo-5,7-dihydroindolo[1,2-a]quinazolin-10-yl)piperidin-1-yl)cyclohexyl)amino)-1-(4-(4-methylthiazol-5-yl)phenyl)-3-oxopropyl)-1-((S)-2-(1-fluorocyclopropane-1-carboxamido)-3,3-dimethylbutanoyl)-4-hydroxypyrrolidine-2-carboxamide]: in experiment [1], the DC50 was in the range of 100 to 500 nM and the Dmax was 70 to 90%. Further, in experiment [2], the DC50 was in the range of 100 to 500 nM and the Dmax was under 50%.
For `Cc1ncsc1-c1ccc([C@H](C)NC(=O)[C@@H]2C[C@@H](O)CN2C(=O)[C@@H](NC(=O)C2CCC(CN3CCC(c4ccc5c(c4)C(C)(C(F)(F)F)c4nc(=O)c6c(Cl)cccc6n4-5)CC3)CC2)C(C)(C)C)cc1` (stereo partly drawn) [Compound B76, (2S,4R)-1-((2S)-2-((1r,4S)-4-((4-(4-chloro-7-methyl-5-oxo-7-(trifluoromethyl)-5,7-dihydroindolo[1,2-a]quinazolin-9-yl)piperidin-1-yl)methyl)cyclohexane-1-carboxamido)-3,3-dimethylbutanoyl)-4-hydroxy-N-((S)-1-(4-(4-methylthiazol-5-yl)phenyl)ethyl)pyrrolidine-2-carboxamide], in experiment [1], the DC50 was 100 to 500 nM and the Dmax was in the range of 70 to 90%. In experiment [2], the DC50 is 100 to 500 nM and the Dmax is under 50%.
Consider `CC(C)[C@@H](C(=O)N1C[C@H](O)C[C@H]1C(=O)N[C@@H](C)c1ccc(-c2scnc2C#CCN2CCOCC2)cc1)n1cc([C@H]2CC[C@H](CN3CCN(c4ccc5c(c4)-n4c(nc(=O)c6c(Cl)cccc64)C5(C)C)CC3)CC2)nn1` [Compound B136, (2S,4R)-1-((S)-2-(4-((1r,4S)-4-((4-(4-chloro-7,7-dimethyl-5-oxo-5,7-dihydroindolo[1,2-a]quinazolin-10-yl)piperazin-1-yl)methyl)cyclohexyl)-1H-1,2,3-triazol-1-yl)-3-methylbutanoyl)-4-hydroxy-N-((S)-1-(4-(4-(3-morpholinoprop-1-yn-1-yl)thiazol-5-yl)phenyl)ethyl)pyrrolidine-2-carboxamide], for which, in experiment [1], the DC50 is under 100 nM and the Dmax is over 90%. In experiment [2], the DC50 is under 100 nM and the Dmax is 70 to 90%.

These data come from US20260092071A1, “COMPOUNDS AND COMPOSITIONS AS SMARCA2/4 DEGRADERS AND USES THEREOF” (REGENTS OF THE UNIVERSITY OF MICHIGAN, priority 2022, published 2026).
